# Source: patent publication US8232448B2, “Transgenic mouse with a homozygous mutation in the CMAH gene” (The Regents of the University of California, priority 2005, dated 2012)
# Columns and labels:
# [1] = tested on: Caco-2 cells; assay: Endocytosis inhibition experiments (Neu5Gc incorporation); format: cell-based, human; conditions: Caco-2, 2 h pre-treatment with drug, then 3 mM Neu5Gc
# Procedure: The sonicate was centrifuged at 75×g for 15 min., and the pellet Obtained consisted primarily of nuclei and unbroken cells. […] A portion (20%) of the “total homogenate” fraction was taken for protein quantification and Sia analysis by DMB derivatization and HPLC analysis (as discussed below.) The remainder was centrifuged at 100,000×g for 1 h. The resulting pellet, called the “membrane” fraction, was then resuspended by sonication (15 sec.) in 200 μl of sodium acetate buffer, pH 5.5. The 100,000×g supernatant, called the “soluble” fraction was adjusted to 90% ethanol using absolute ice-cold ethanol, and placed overnight at −20° C. The flocculant precipitate, which represents the “soluble protein” fraction, was washed 3 times with 90%® ice-cold ethanol and then resuspended in 200 μl of water. The supernatant fluid representing the cytosolic low molecular weight (LMW) fraction was dried and brought up in 100 μL with water prior to Sia analysis. All the Sias in these fractions were released with mild acid hydrolysis if necessary and then analyzed by HPLC after DMB derivatization. Protein quantification was performed on the total homogenate, membrane and soluble protein fractions by using the BCA protein assay kit from Pierce (Rockford, Ill.) In some experiments, the resulting data obtained for the Sia bound to the membrane fraction and to the soluble proteins were pooled and presented here as a High Molecular Weight (HMW) fraction. Sialic Acid Release, DMB Derivatization and HPLC Analysis—The bound Sias from the total homogenate, membrane and soluble protein fractions were released using 2M acetic acid hydrolysis, 3 h. at 80° C. The released Sias, or free Sias, contained in the soluble LMW fraction were passed through a Microcon® YM-10 filter (Millipore, Bedford, Mass.) prior to DMB derivatization, which was done according to Hara et al., 1989. […] The eluant was monitored by fluorescence. Quantification of Sias—For all HPLC chromatograms, the quantification of Sias was done by comparison with known quantities of DMB derivatized Neu5Gc and Neu5Ac used as standards and then reported in terms of pmoles of Sia. For total homogenate, membrane and cytosolic protein fractions, this number was expressed per mg of protein. Due to minor sample-to-sample variations in amounts and recoveries, the data in the Figures is presented as percent of Neu5Gc over total Sias, rather than as absolute amounts. Endocytosis Inhibition Experiments—Caco-2 or normal fibroblast cells were split and cultured in alpha-MEM media supplemented respectively with 20% or 15% human serum for 4 days before starting the endocytosis drug inhibition experiments in order to deplete any Neu5Gc derived from FCS. Cells were then pre-treated for 2 h. with the specific inhibitors under the same culture conditions. Fresh media containing the same amount of inhibitor and 3 mM of Neu5Gc was then added to the cells, which were incubated for 16 h or 3 days and finally harvested and fractionated as described above.
# [2] = tested on: Caco-2 cells; assay: Competition of free Neu5Ac with free Neu5Gc for incorporation; format: cell-based, human; conditions: Caco-2, 3 mM Neu5Gc 3 days, in the presence of 15 mM Neu5Ac
# Procedure: Neu5Gc and ManNGc Feeding Experiment—Neu5Ac, Neu5Gc or ManNGc were dried, dissolved in the appropriate media supplemented with heat-inactivated human serum, sterilized using a Spin-X® (Corning Inc., Corning, N.Y.) and then added to the cells. The pH of the media containing Sia was adjusted to neutrality using sterilized 1M NaOH before starting the feeding experiment. […] At the end of the feeding, cells were washed with cold PBS, harvested either by scraping or with 2 mM EDTA for fibroblasts, and washed again with cold PBS prior to fractionation.
# Fractionation of the Labeled Cells—Washed cell pellets were sonicated into 500 μL of 20 mM sodium phosphate buffer or 20 mM Tris-HCl, pH 7.5, using 4×15 second pulses of a sonicator cell disrupter, model Some Dismembrator (Fisher Scientific, Hampton, N.J.) at a probe setting of 3. […] The pellet contained <5% of the incorporated sialic acid as determined using a radioactive tracer (data not shown.) The supernatant was therefore considered as the “total homogenate” fraction. A portion (20%) of the “total homogenate” fraction was taken for protein quantification and Sia analysis by DMB derivatization and HPLC analysis (as discussed below.) The remainder was centrifuged at 100,000×g for 1 h. […] All the Sias in these fractions were released with mild acid hydrolysis if necessary and then analyzed by HPLC after DMB derivatization. […]
# [3] = tested on: human LB EBV-transformed lymphoblasts; assay: Neu5Gc/Neu5Ac feeding experiment, human lymphoblasts; format: cell-based; conditions: human lymphoblasts fed 3 mM Neu5Ac for 3 days
# Procedure: Cell Culture—Caco-2 cells were propagated in alpha-MEM containing GLUTAMAX™ (Invitrogen, San Diego, Calif.) and a mixture of ribonucleosides and deoxyribonucleosides (Gibco/Invitrogen, San Diego, Calif.) supplemented with 20% FCS. All the fibroblast cell lines and CHO-K1 cells were cultured in the same media supplemented respectively with 15% non-heat inactivated FCS or 10% heat inactivated FCS. Chimpanzee Fred and human LB EBV-transformed lymphoblasts were cultured in RPMI-1640 (Gibco/Invitrogen, San Diego, Calif.) supplemented with 10% heat inactivated FCS or 15% human serum. All of the cultures were maintained at 37° C., 5% CO2 atmosphere. In order to deplete any remaining Neu5Gc from FCS, the cells were split and cultured prior to Neu5Gc feeding experiments for at least 4 days in alpha-MEM supplemented with an adequate percentage of heat-inactivated premium human serum instead of FCS. The cells were then maintained under the same conditions during the whole feeding experiment. The human serum was heat inactivated at 56° C. for 30 min. before use.
# Neu5Gc and ManNGc Feeding Experiment—Neu5Ac, Neu5Gc or ManNGc were dried, dissolved in the appropriate media supplemented with heat-inactivated human serum, sterilized using a Spin-X® (Corning Inc., Corning, N.Y.) and then added to the cells. The pH of the media containing Sia was adjusted to neutrality using sterilized 1M NaOH before starting the feeding experiment. Cells were cultured in the presence of up to 3 mM free Sia or ManNGc for 1 or 3 days at 37° C. […]
# Fractionation of the Labeled Cells—Washed cell pellets were sonicated into 500 μL of 20 mM sodium phosphate buffer or 20 mM Tris-HCl, pH 7.5, using 4×15 second pulses of a sonicator cell disrupter, model Some Dismembrator (Fisher Scientific, Hampton, N.J.) at a probe setting of 3. […] The pellet contained <5% of the incorporated sialic acid as determined using a radioactive tracer (data not shown.) The supernatant was therefore considered as the “total homogenate” fraction. A portion (20%) of the “total homogenate” fraction was taken for protein quantification and Sia analysis by DMB derivatization and HPLC analysis (as discussed below.) The remainder was centrifuged at 100,000×g for 1 h. […] All the Sias in these fractions were released with mild acid hydrolysis if necessary and then analyzed by HPLC after DMB derivatization. Protein quantification was performed on the total homogenate, membrane and soluble protein fractions by using the BCA protein assay kit from Pierce (Rockford, Ill.) In some experiments, the resulting data obtained for the Sia bound to the membrane fraction and to the soluble proteins were pooled and presented here as a High Molecular Weight (HMW) fraction. […]
# [4] = tested on: normal human skin fibroblasts; assay: Neu5Gc/ManNGc feeding experiment, normal (WT) fibroblasts, DMB-HPLC; format: cell-based; conditions: normal wild-type (WT) fibroblasts, fed 3 mM for 3 days
# Procedure: Neu5Gc and ManNGc Feeding Experiment—Neu5Ac, Neu5Gc or ManNGc were dried, dissolved in the appropriate media supplemented with heat-inactivated human serum, sterilized using a Spin-X® (Corning Inc., Corning, N.Y.) and then added to the cells. The pH of the media containing Sia was adjusted to neutrality using sterilized 1M NaOH before starting the feeding experiment. Cells were cultured in the presence of up to 3 mM free Sia or ManNGc for 1 or 3 days at 37° C. At the end of the feeding, cells were washed with cold PBS, harvested either by scraping or with 2 mM EDTA for fibroblasts, and washed again with cold PBS prior to fractionation.
# Fractionation of the Labeled Cells—Washed cell pellets were sonicated into 500 μL of 20 mM sodium phosphate buffer or 20 mM Tris-HCl, pH 7.5, using 4×15 second pulses of a sonicator cell disrupter, model Some Dismembrator (Fisher Scientific, Hampton, N.J.) at a probe setting of 3. The sonicate was centrifuged at 75×g for 15 min., and the pellet Obtained consisted primarily of nuclei and unbroken cells. The pellet contained <5% of the incorporated sialic acid as determined using a radioactive tracer (data not shown.) The supernatant was therefore considered as the “total homogenate” fraction. A portion (20%) of the “total homogenate” fraction was taken for protein quantification and Sia analysis by DMB derivatization and HPLC analysis (as discussed below.) The remainder was centrifuged at 100,000×g for 1 h. The resulting pellet, called the “membrane” fraction, was then resuspended by sonication (15 sec.) in 200 μl of sodium acetate buffer, pH 5.5. The 100,000×g supernatant, called the “soluble” fraction was adjusted to 90% ethanol using absolute ice-cold ethanol, and placed overnight at −20° C. The flocculant precipitate, which represents the “soluble protein” fraction, was washed 3 times with 90%® ice-cold ethanol and then resuspended in 200 μl of water. The supernatant fluid representing the cytosolic low molecular weight (LMW) fraction was dried and brought up in 100 μL with water prior to Sia analysis. All the Sias in these fractions were released with mild acid hydrolysis if necessary and then analyzed by HPLC after DMB derivatization. Protein quantification was performed on the total homogenate, membrane and soluble protein fractions by using the BCA protein assay kit from Pierce (Rockford, Ill.) In some experiments, the resulting data obtained for the Sia bound to the membrane fraction and to the soluble proteins were pooled and presented here as a High Molecular Weight (HMW) fraction.
# Sialic Acid Release, DMB Derivatization and HPLC Analysis—The bound Sias from the total homogenate, membrane and soluble protein fractions were released using 2M acetic acid hydrolysis, 3 h. at 80° C. The released Sias, or free Sias, contained in the soluble LMW fraction were passed through a Microcon® YM-10 filter (Millipore, Bedford, Mass.) prior to DMB derivatization, which was done according to Hara et al., 1989. DMB-Sia derivatives from the different fractions were then analyzed by HPLC using a C18 column (Microsorb MV-TM 100 A, Varian, Palo Alto, Calif.) Isocratic elution was achieved using 7% methanol, 8% acetonitrile in water during 50 min. at 0.9 ml/min flow. The eluant was monitored by fluorescence.
# Quantification of Sias—For all HPLC chromatograms, the quantification of Sias was done by comparison with known quantities of DMB derivatized Neu5Gc and Neu5Ac used as standards and then reported in terms of pmoles of Sia. […]
structure (smiles),measurement,setting,value
N=C(N)NC(=O)c1nc(Cl)c(N)nc1N [amiloride],Neu5Gc incorporation into membrane-bound glycoconjugates in the presence of inhibitor,[1],10%
"CC(=O)N[C@H]1[C@H]([C@H](O)[C@H](O)CO)OC(O)(C(=O)O)C[C@@H]1O (stereo partly shown) [Neu5Ac, N-acetylneuraminic acid]",Neu5Gc (percent of total Sia) in the membrane-bound fraction,[2],almost to zero
same,Neu5Gc detected in the cells,[3],almost no detectable Neu5Gc
"O=C(CO)N[C@@H]1C(O)O[C@H](CO)[C@@H](O)[C@@H]1O (stereo partly shown) [ManNGc, N-glycolylmannosamine]",percent of Neu5Gc in membrane-bound glycoconjugates,[4],19%
